Data reported in patent US20050272750A1, “Novel compound” (AstraZeneca AB, priority 2002, published 2005).

Columns and labels:
[1] = biological target: T1, hrCXCR2 (Homo sapiens, UniProt P25025); experiment: Ligand binding assay ([125I]IL-8 displacement, HEK 293 membranes); conditions: [125I]IL-8 binding to membranes of HEK 293 cells expressing hrCXCR2; 1.5 hours at room temperature
T1 construct: expressed in transfected cells; host or cells: HEK 293 cells (ECACC No. 85120602), membranes of the highest expressing clone
T1 sequence (P25025 1-360): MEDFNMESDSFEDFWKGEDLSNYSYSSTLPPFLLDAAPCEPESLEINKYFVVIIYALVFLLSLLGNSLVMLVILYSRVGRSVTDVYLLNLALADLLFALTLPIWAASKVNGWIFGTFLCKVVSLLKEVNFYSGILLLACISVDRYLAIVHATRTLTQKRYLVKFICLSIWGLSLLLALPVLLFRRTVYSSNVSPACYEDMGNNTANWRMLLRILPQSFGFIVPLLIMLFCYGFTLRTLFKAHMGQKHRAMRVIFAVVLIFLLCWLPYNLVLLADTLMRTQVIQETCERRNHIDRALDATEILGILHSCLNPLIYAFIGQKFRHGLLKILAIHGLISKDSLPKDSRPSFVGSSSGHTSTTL
Source text: [^125I]IL-8 (human, recombinant) was purchased from Amersham, U.K. with a specific activity of 2,000 Ci/mmol. All other chemicals were of analytical grade. High levels of hrCXCR2 were expressed in HEK 293 cells (human embryo kidney 293 cells ECACC No. 85120602) (Lee et al. (1992) J. Biol. Chem. 267 pp 16283-16291). hrCXCR2 cDNA was amplified and cloned from human neutrophil mRNA. The DNA was cloned into PCRScript (Stratagene) and clones were identified using DNA. The coding sequence was sub-cloned into the eukaryotic expression vector RcCMV (Invitrogen). Plasmid DNA was prepared using Quiagen Megaprep 2500 and transfected into HEK 293 cells using Lipofectamine reagent (Ginbco BRL). Cells of the highest expressing clone were harvested in phosphate-buffered saline containing 0.2% (w/v) ethylenediaminetetraacetic acid (EDTA) and centrifuged (200 g, 5 min.). The cell pellet was resuspended in ice cold homogenisation buffer [[…] HEPES (pH 7.4), 1 mM dithiothreitol 1 mM EDTA and a panel of protease inhibitors (1 mM phenyl methyl sulphonyl fluoride, 2 μg/ml soybean trypsin inhibitor, 3 mM benzamidine, 0.5 μg/ml leupeptin and 100 μg/ml bacitracin)] and the cells left to swell for 10 minutes. […] The backing plate was removed from the MultiScreen plate assembly, the filters dried at room temperature, punched out and then counted on a Cobra γ-counter.

[2] = biological target: T2, CXCR2 receptor in human neutrophils (Homo sapiens, UniProt P25025); experiment: Intracellular calcium mobilisation assay (GROα-stimulated, fluo-3, FLIPR); assay type: cell-based; conditions: A50 concentration of GROα, fluo-3 fluorescence
T2 construct: Human neutrophils were prepared from EDTA-treated peripheral blood; endogenous in cells; host or cells: human neutrophils from peripheral blood
T2 sequence (P25025 1-360): T1 sequence (P25025 1-360)
Experimental: Intracellular Calcium Mobilisation Assay
Human neutrophils were prepared from EDTA-treated peripheral blood, as previously described (Baly et al. (1997) Methods in Enzymology 287 pp70-72), in storage buffer [Tyrode's salt solution (137 mM NaCl 2.7 mM KCl, 0.4 mM NaH2PO4) supplemented with 5.7 mM glucose and 10 mM HEPES (pH 7.4)].
The chemokine GROα (human, recombinant) was purchased from R&D Systems (Abingdon, U.K.). All other chemicals were of analytical grade. Changes in intracellular free calcium were measured fluorometrically by loading neutrophils with the calcium sensitive fluorescent dye, fluo-3, as described previously (Merritt et al. (1990) Biochem. J. 269, pp513-519). Cells were loaded for 1 hour at 37° C. in loading buffer (storage buffer with 0.1% (w/v) gelatin) containing 5 μM fluo-3 AM ester, washed with loading buffer and then resuspended in Tyrode's salt solution supplemented with 5.7 mM glucose, 0.1% (w/v) bovine serum albumin (BSA), 1.8 mM CaCl2 and 1 mM MgCl2. […]
A compound of formula (1) according to the Examples was pre-dissolved in DMSO and added to a final concentration of 0.1% (v/v) DMSO. Assays were initiated by the addition of an A50 concentration of GROα and the transient increase in fluo-3 fluorescence (λEx=490 nm and λEm=520 nm) monitored using a FLIPR (Fluorometric Imaging Plate Reader, Molecular Devices, Sunnyvale, U.S.A).

- IC50 [1]: < 10 µM
- antagonism of the CXCR2 receptor (GROα-induced intracellular calcium increase) [2]: antagonist
- melting point: 202 to 204 °C
Structure (SMILES): C[C@H](O)[C@H](CO)Nc1nc(SCc2cccc(F)c2F)nc2[nH]c(=O)sc12 [compound of formula (I), 5-[((2,3-difluorophenyl)methyl)thio]-7-{[(1S,2S)-2-hydroxy-1-(hydroxymethyl)propyl]amino}thiazolo[4,5-d]pyrimidin-2(3B)-one]
